According to ChEMBL document CHEMBL1799908, “Discovery and preliminary SARs of keto-indoles as novel indoleamine 2,3-dioxygenase (IDO) inhibitors” (Eur J Med Chem, 2011):
Active and inactive are the calls of the source. The calls are words filed in the database; no cut-off is given here.

Tests used:
[1] = Cytotoxicity against mouse mastocytoma P815B cells assessed as cell viability at 20 uM after overnight incubation by MTT assay; type: cell-based; settings: for viability at 20 µM: mastocytoma P815B cells, read-out: Activity; for Activity: p815b, 20 µM
[2] = biological target: T1, Indoleamine 2,3-dioxygenase 1 (Homo sapiens, UniProt P14902); assay: Competitive inhibition of histidine-tagged human recombinant IDO expressed in bacterial strain BL21 AI using L-Trptophan as substrate measured at 490 nm wavelength after 6 min by colorimetric assay
Target sequence in this assay (P14902 whole entry): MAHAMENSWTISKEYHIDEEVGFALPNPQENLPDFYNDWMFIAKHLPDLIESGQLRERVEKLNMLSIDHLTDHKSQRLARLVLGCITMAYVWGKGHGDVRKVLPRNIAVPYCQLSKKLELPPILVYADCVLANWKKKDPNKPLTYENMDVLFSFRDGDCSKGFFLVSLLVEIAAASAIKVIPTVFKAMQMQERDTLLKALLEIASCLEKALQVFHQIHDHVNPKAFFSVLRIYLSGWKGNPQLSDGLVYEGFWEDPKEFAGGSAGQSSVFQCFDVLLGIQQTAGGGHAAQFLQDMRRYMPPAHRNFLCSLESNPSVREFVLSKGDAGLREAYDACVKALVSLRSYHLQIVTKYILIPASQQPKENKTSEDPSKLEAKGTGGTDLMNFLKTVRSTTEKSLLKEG

[3] = biological target: Indoleamine 2,3-dioxygenase 1 (Mus musculus) (UniProt P28776); assay: Inhibition of mouse IDO expressed in mouse mastocytoma P815B cells using L-Trptophan as substrate at 20 uM after overnight by HPLC; type: cell-based
[4] = biological target: Tryptophan 2,3-dioxygenase (Mus musculus) (UniProt P48776); assay: Inhibition of mouse TDO expressed in mouse mastocytoma P815B cells using L-Trptophan as substrate at 20 uM after overnight by HPLC; type: cell-based
[5] = biological target: T1, Indoleamine 2,3-dioxygenase 1; assay: Inhibition of histidine-tagged human recombinant IDO expressed in bacterial strain BL21 AI using L-Trptophan as substrate measured at 490 nm wavelength at 100 uM after 6 min by colorimetric assay
Target sequence in this assay (P14902 whole entry, looked up): as the sequence (P14902 whole entry) above

[6] = biological target: T1, Indoleamine 2,3-dioxygenase 1; assay: Uncompetitive inhibition of histidine-tagged human recombinant IDO expressed in Escherichia coli using L-Trptophan as substrate assessed as hypochromic effect by UV analysis
Target sequence in this assay (P14902 whole entry, looked up): as the sequence (P14902 whole entry) above

[7] = biological target: T1, Indoleamine 2,3-dioxygenase 1; assay: Uncompetitive inhibition of histidine-tagged human recombinant IDO expressed in bacterial strain BL21 AI using L-Trptophan as substrate measured at 490 nm wavelength after 6 min by colorimetric assay
Target sequence in this assay (P14902 whole entry): as above

Sequence of Tryptophan 2,3-dioxygenase (Mus musculus) (P48776 whole entry): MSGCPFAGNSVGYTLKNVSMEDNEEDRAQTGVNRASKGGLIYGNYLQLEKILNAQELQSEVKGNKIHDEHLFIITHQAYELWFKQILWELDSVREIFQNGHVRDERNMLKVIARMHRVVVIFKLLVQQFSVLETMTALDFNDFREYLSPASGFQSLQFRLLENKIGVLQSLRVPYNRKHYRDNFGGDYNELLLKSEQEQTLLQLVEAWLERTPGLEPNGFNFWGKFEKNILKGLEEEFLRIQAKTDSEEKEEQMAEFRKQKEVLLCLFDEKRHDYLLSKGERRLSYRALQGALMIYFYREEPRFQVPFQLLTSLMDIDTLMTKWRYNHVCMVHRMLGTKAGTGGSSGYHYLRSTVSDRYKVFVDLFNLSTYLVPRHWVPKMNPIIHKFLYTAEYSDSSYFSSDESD
Sequence of Indoleamine 2,3-dioxygenase 1 (Mus musculus) (P28776 whole entry, looked up): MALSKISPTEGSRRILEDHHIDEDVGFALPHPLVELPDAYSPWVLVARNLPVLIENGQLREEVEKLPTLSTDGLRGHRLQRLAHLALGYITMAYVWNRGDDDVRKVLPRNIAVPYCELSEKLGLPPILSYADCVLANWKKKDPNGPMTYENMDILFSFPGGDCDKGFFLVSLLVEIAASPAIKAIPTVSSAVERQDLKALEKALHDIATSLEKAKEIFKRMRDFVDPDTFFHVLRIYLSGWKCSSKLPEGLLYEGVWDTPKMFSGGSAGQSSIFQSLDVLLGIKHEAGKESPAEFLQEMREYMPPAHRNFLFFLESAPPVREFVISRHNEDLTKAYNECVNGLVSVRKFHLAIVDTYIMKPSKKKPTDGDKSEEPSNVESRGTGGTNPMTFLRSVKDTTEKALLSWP

SMILES | viability at 20 µM [1] [%] | inhibition [4] | Activity [1] | also measured
Cn1c(C(=O)Cc2cccnc2)cc2cc(F)ccc21 | 95 | inactive | – | IC50 [2]: 92 µM; inhibition [3]: inactive
Cn1cc(C[C@H](N)C(=O)O)c2ccccc21 [(L)-1-METHYLTRYPTOPHAN] | – | inactive | Non-toxic | –
OC(Cc1cccnc1)c1cc2ccccc2[nH]1 (configuration not stated) | 90 | inactive | – | –
O=C(Nc1cccnc1)c1cc2ccccc2[nH]1 | 75 | inactive | – | –
Cn1c(C(=O)Cc2cccnc2)cc2ccccc21 | – | inactive | Non-toxic | –
O=C(Cc1cccnc1)c1cc2cc([N+](=O)[O-])ccc2[nH]1 | 90 | inactive | – | –
c1cncc(CCc2cc3ccccc3[nH]2)c1 | 90 | inactive | – | –
O=C(Cc1cccnc1)c1cc2c(F)cccc2[nH]1 | 80 | inactive | – | –
COc1ccc2[nH]c(C(=O)Cc3cccnc3)cc2c1 | – | inactive | Non-toxic | –
O=C(Cc1cccnc1)c1cc2cc(F)ccc2[nH]1 | – | inactive | Non-toxic | –
N#Cc1ccc(-n2nnc3ccccc32)cc1 | – | – | – | inhibition [5]: > 50%
O=C(Cc1cccnc1)c1cc2ccccc2[nH]1 | – | inactive | Non-toxic | Activity [6]: Active; Ki [7]: 190 µM; inhibition [5]: > 50%
O=C(Cc1cccnc1)c1cc2cc(Cl)ccc2[nH]1 | 90 | inactive | – | –
Cc1ccc2[nH]c(C(=O)Cc3cccnc3)cc2c1 | – | inactive | Non-toxic | –
